From patent US6362166B1, “Antipicornaviral compounds and methods for their use and preparation” (Agouron Pharmaceuticals, Inc., priority 1996, dated 2002)
Where two headings read alike, the source gives them in different places.

What was measured:
[1] = target: T1, Recombinant Rhinovirus 3C protease (RVP) serotype 2 (Human rhinovirus 2, UniProt P04936); test: Inhibition of Rhinovirus Protease (fluorescence resonance energy transfer assay), serotype 2; format: biochemical, human rhinovirus (HRV); conditions: for kinact/KI: pH 7.6, progress curves in enzyme start experiments, read-out: kobs/I
T1 construct: Recombinant Rhinovirus 3C proteases from serotypes 14, 16, 2 or 89; made in house
T1 sequence (P04936 1508-1690): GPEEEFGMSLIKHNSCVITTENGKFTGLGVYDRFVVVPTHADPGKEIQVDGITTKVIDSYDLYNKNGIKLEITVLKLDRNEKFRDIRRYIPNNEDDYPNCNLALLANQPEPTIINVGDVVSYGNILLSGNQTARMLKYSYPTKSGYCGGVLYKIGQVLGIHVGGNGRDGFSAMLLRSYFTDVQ
Method: (§1) Stock solution (50 mM, in DMSO) of various compounds were prepared; dilutions were in the same solvent. Recombinant Rhinovirus 3C proteases from serotypes 14, 16, 2 or 89 were prepared by the following standard chromatographic procedures: (1) ion exchange using Q Sepharose Fast Flow from Pharmacia; (2) affinity chromatography using Affi-Gel Blue from Biorad; and (3) sizing using Sephadex G-100 from Pharmacia. Assays contained 2% DMSO, 50 mM tris pH 7.6, 1 mM EDTA, a compound at the indicated concentrations, approximately 1 μM substrate, and 50-100 nM protease. […] The kobs/I values were obtained from reactions initiated by addition of enzyme rather than substrate. RVP activity is measured in the fluorescence resonance energy transfer assay. The substrate was (N-terminal) DABCYL-([…]Gyl)-EDANS. In the uncleaved peptide, the EDANS fluorescence was quenched by the proximal DABCYL moeity. When the peptide was cleaved, the quenching was relieved, and activity was measured as an increase in fluorescence signal.
(§2) In the above table, all data is RVP serotype-14 unless otherwise noted in parentheses. All strains of human rhinovirus (HRV) were purchased from American Type Culture Collection (ATCC), except for serotype 14, which was produced from the infectious cDNA clone constructed and supplied to us by Dr. Roland Rueckert at the Institute for Molecular Virology, University of Wisconsin, Madison, Wisc. […] The data in the column designated kobs/I was measured from progress curves in enzyme start experiments.

[2] = test system: HRV-14; test: Antirhinoviral HI-HeLa Cell Culture Assay (Cell Protection Assay, XTT dye reduction); format: cell-based, human rhinovirus (HRV) serotype-14
Method in brief: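 Protection measured via XTT dye reduction (450/650 nm) two days after compound treatment of HI-HeLa cells, mock-infected or infected with cDNA-derived HRV-14 at m.o.i. 0.13. CC50 divided by EC50 gives the therapeutic index.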

[3] = Cytotoxicity in mock-infected HI-HeLa cells (antirhinoviral assay, XTT); format: cell-based; conditions: human; mock-infected HI-HeLa cells; two days; XTT; read-out: CC50
[4] = target: T2, Recombinant Rhinovirus 3C protease (RVP) serotype-14 (Human rhinovirus 14, UniProt P03303); test: Inhibition of Rhinovirus Protease (fluorescence resonance energy transfer assay), serotype 14; format: biochemical, human rhinovirus (HRV); conditions: for kinact/KI: pH 7.6, read-out: kobs/I; for kobs/I: progress curves in enzyme start experiments
T2 construct: Recombinant Rhinovirus 3C proteases from serotypes 14, 16, 2 or 89; made in house
T2 sequence (P03303 1538-1719): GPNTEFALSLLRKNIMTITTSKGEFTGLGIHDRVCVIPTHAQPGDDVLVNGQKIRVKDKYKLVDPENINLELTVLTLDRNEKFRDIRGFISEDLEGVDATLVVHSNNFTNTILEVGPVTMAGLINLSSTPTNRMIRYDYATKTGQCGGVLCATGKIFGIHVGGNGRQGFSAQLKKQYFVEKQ

[5] = target: T3, Recombinant Rhinovirus 3C protease (RVP) serotype 16 (Human rhinovirus 16, UniProt Q82122); test: Inhibition of Rhinovirus Protease (fluorescence resonance energy transfer assay), serotype 16; format: biochemical, human rhinovirus (HRV); conditions: RVP serotype 16, progress curves in enzyme start experiments; for kinact/KI: pH 7.6, read-out: kobs/I
T3 construct: Recombinant Rhinovirus 3C proteases from serotypes 14, 16, 2 or 89; made in house
T3 sequence (Q82122 1511-1693): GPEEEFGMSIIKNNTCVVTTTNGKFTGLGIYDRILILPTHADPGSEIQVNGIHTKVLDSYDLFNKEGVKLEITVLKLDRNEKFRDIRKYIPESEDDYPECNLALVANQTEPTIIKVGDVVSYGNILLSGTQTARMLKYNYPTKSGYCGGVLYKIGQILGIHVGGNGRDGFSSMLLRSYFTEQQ
Method: as §1, §2

[6] = test system: HI-HeLa cells; test: Cytotoxicity in mock-infected HI-HeLa cells (antirhinoviral assay, XTT); format: cell-based
[7] = test system: Human Rhinovirus-serotype 10 (HRV-10); test: Normal Human Bronchial Epithelial Cell Assay (MTT); format: cell-based; conditions: normal human bronchial cells, HRV-10 at m.o.i. 10, 3-4 days at 34° C., read-out: ED50 (the source's name)
Method: Normal human bronchial cells were obtained from cadavers and cultured. The cells were plated at 2×10^4 per well in a […] plate. They were allowed to adhere and grow for 24 hours in 200 μL of serum-free bronchial/tracheal epithelial cell growth medium at 37° C. with 5% CO2. Human Rhinovirus-serotype 10 (HRV-10) was purchased from American Type Culture Collection (ATCC). To start the assay, the supernatant was removed, and HRV-10 at an m.o.i. of 10 (virus particles/cell) was added to each well along with the appropriate amount of compound of formula I or II. The plate was then incubated at 34° C. After 3 hours the supernatant was removed, and 200 μL of media was added along with the same concentration of compound as used in the beginning of the assay. The plates were incubated for 3-4 days at 34° C. To determine the amount of cell growth, an MTT assay (0.5 mgs/mL), as described in Mosmann, T. J. J. Immunol. Methods 1983, 65, 55-63, which is incorporated herein by reference, was performed on the cells, and the plate was read at an optical density of 540 nm. The compounds were tested against control compound Pirodavir, obtained from Janssen Pharmaceuticals. The EC50 was measured as described above for the HI-HeLa Cell Culture Assay.

[8] = test system: CVB-3; test: Anticoxsackieviral HI-HeLa Cell Culture Assay (XTT dye reduction); format: cell-based, Coxsackie strain B-3 (CVB-3); conditions: HI-HeLa cells infected with CVB-3, m.o.i. 0.08, one day
Method: (§3) Specifically, HI-HeLa cells were infected wtih […] at a multiplicity of infection (m.o.i.) of 0.08 or mock-infected with medium only. Infected or mock-infected cells were resuspended at 8×10^5 cells per mL and incubated with appropriate concentrations of compound. One day later, XTT/PMS were added to test plates and the amount of formazan produced was quantified spectrophotometrically at 450/650 nm. […] The therapeutic index (TI) was calculated by dividing the CC50 by the EC50.
(§4) The Coxsackie strain B-3 (CVB-3) was purchased from American Type Culture Collection (ATCC). Virus stocks were propgated and antiviral assays were performed in Hi-HeLa cells (ATCC). Cells were grown in Minimal Essential Medium with 10% fetal bovine serum.

[9] = test system: HI-HeLa cells; test: Cytotoxicity in mock-infected HI-HeLa cells (anticoxsackieviral assay, XTT); format: cell-based
Method: as §3, with “The ability of compounds to protect calls against CVB-3 infection was measured by the XTT dye reduction method, which is described in Weislow, O. S., R. Kiser, D. L. Fine, J. Bader, R. H. Shoemaker, and M. R. Boyd, 1989, J. Natl. Cancer Inst. 81:577-586, which is incorporated herein by reference. Specifically,” for “Specifically,”
as §4

[10] = HI-HeLa cells infected with HRV-14, m.o.i. 0.13, two days, XTT, read-out: EC50
[11] = mock-infected HI-HeLa cells, two days, XTT, read-out: CC50
[12] = RVP serotype-14, 10 minute preincubation, substrate start, read-out: INHIB (Ki)
[13] = mock-infected HI-HeLa cells, one day, XTT, read-out: CC50
[14] = Rhinovirus B, HRV14, 48 h, HI-HeLa cells infected with HRV-14, m.o.i. 0.13, two days, XTT, read-out: EC50

Molecule | kinact/KI [1] [M⁻¹ s⁻¹] | CC50 at 2 days [3] [µM] | kinact/KI [4] [M⁻¹ s⁻¹] | kinact/KI [5] [M⁻¹ s⁻¹] | EC50 [2, 10] [µM] | kobs/I ([4]; RVP serotype-14) | EC50 [2, 14] [µM] | Ki [4] [µM] | further results
CCOC(=O)C=CC(CCC(N)=O)NC(=O)C(Cc1ccc(C)cc1)NC(=O)C(CC(C)C)NC(=O)OCc1ccccc1 (centres unmarked) [Compound 155] | 1390 | > 320 | 59400 | 5250 | – | – | – | – | EC50 ([2]; Rhinovirus B, HRV14, 48 h): 0.18 µM
CCOC(=O)/C=C/[C@H](CCC(N)=O)NC(=O)[C@H](Cc1ccc(F)cc1)NC(=O)c1cc2c(OC)cccc2[nH]1 [Compound 27] | – | – | – | – | 3.5 | 3,000 M-1 sec-1 | – | – | CC50 [6, 11]: 160 µM; EC50 [7]: 0.07 µM; Ki [4, 12]: 20 µM; EC50 [8]: 20 µM; CC50 [9, 13]: 103 µM
CCOC(=O)/C=C/[C@H](CCC(N)=O)NC(=O)[C@H](Cc1ccccc1)NC(=O)[C@H](CC(C)C)NC(=O)SCc1ccccc1 [Compound 106] | 28400 | > 320 | 280000 | 75000 | – | – | 0.27 | 2 | –
CC(C)C[C@H](NC(=O)OCc1ccccc1)C(=O)N[C@@H](Cc1ccccc1)C(=O)N[C@H](/C=C/C(=O)N1CC=CC1)CCC(N)=O [Compound 41] | – | – | – | – | 56 | 8,464 M-1 sec-1 | – | – | CC50 [6]: 56 µM; EC50 [8]: > 100 µM; CC50 [9]: > 100 µM
CC(C)C[C@H](NC(=O)OCc1ccccc1)C(=O)N[C@@H](Cc1ccccc1)C(=O)N[C@H](/C=C/c1ccccn1)CCC(N)=O [Compound 23] | – | – | – | – | > 100 | 120 M⁻¹ s⁻¹ | – | – | CC50 [6, 11]: > 100 µM; Ki [4, 12]: 177 µM; EC50 [8]: > 100 µM; CC50 [9, 13]: > 100 µM
CCOC(=O)/C=C/[C@H](CNC(C)=O)NC(=O)[C@H](Cc1ccccc1)NC(=O)[C@H](CC(C)C)NC(=O)OCc1ccccc1 [Compound 4, Ethyl-3-[CBZ-L-Leu-L-Phe-L-(N-Ac-amino)-Ala]-E-Propenoate] | – | – | – | – | 2.2 | 790 M⁻¹ s⁻¹ | – | – | CC50 [6]: > 320 µM; EC50 [7]: 0.15 µM; INHIB (percent inhibition) ([4]; RVP serotype-14, 0.5 μM compound, 10 minute preincubation with 50 nM RVP): 49(0.5) percent
CC(C)C[C@H](NC(=O)OCc1ccccc1)C(=O)N[C@@H](Cc1ccccc1)C(=O)N[C@H](/C=C/C(=O)c1ccccc1)CCC(N)=O [Compound 24, 1-Phenyl-3-(CBZ-L-Leu-L-Phe-L-Gln)-E-Propenone] | – | – | – | – | 4 | 500,000 M-1 sec-1 | – | – | CC50 [6, 11]: 16 µM; EC50 [8]: 10 µM; CC50 [9, 13]: 10 µM
CCOC(=O)C=CC(CCC(N)=O)NC(=O)C(Cc1ccccc1)NC(=O)C(CCc1ccccc1)NC(=O)OCc1ccccc1 (centres unmarked) [Compound 148] | 8300 | > 320 | 57000 | 14800 | – | – | 0.25 | – | –
CC(C)C[C@H](NC(=O)OCc1ccccc1)C(=O)N[C@@H](Cc1ccccc1)C(=O)N[C@H](/C=C/C(=O)N1CCc2ccccc21)CCC(N)=O [Compound 85] | – | > 320 | 6500 | – | – | – | 16 | 3 | EC50 ([7]; Epithelial cell): 0.005 µM
CCOC(=O)/C=C/[C@H](CC[S+](C)[O-])NC(=O)[C@H](Cc1ccccc1)NC(=O)[C@H](CC(C)C)NC(=O)OCc1ccccc1 (stereo partly drawn) [Compound 12, Ethyl-3-[CBZ-L-Leu-L-Phe-L-Met(sulfoxide)]-E-propenoate] | – | > 100 | 2200 | – | – | – | 1.6 | 4.3 | EC50 ([7]; Epithelial cell): 0.004 µM
CCOC(=O)/C=C/[C@H](CCC(N)=O)NC(=O)[C@H](Cc1ccccc1)NC(=O)[C@H](CSc1ccccc1)NC(=O)OCc1ccccc1 [Compound 153] | 13400 | > 320 | 141000 | 30600 | – | – | 0.12 | 1.4 | –
CCOC(=O)/C=C/[C@H](CCC(N)=O)NC(=O)[C@H](Cc1ccccc1)NC(=O)[C@H](CCC(=O)O)NC(=O)OCc1ccccc1 [Compound 154] | 5400 | > 320 | 78900 | 13900 | – | – | 5.5 | 1.1 | –
CCOC(=O)/C=C/[C@H](CCC(N)=O)NC(=O)[C@H](Cc1ccc(CCO)cc1)NC(=O)[C@H](CC(C)C)NC(=O)OCc1ccccc1 [Compound 139] | – | – | – | – | 3.5 | 43,140 M-1 sec-1 | – | – | kobs/I ([1]; progress curves in enzyme start experiments): 691 M⁻¹ s⁻¹; CC50 [6]: > 320 µM; kobs/I [5]: 1,259 M-1 sec-1
CCOC(=O)/C=C/[C@H](CCC(N)=O)NC(=O)[C@H](Cc1ccccc1)NC(=O)[C@H](CC(=O)O)NC(=O)OCc1ccccc1 [Compound 159] | 2500 | > 320 | 35000 | 6500 | – | – | 2.4 | 0.5 | –
Cc1cc(CCCCCOc2c(Cl)cc(C3=NCCO3)cc2Cl)on1 [WIN 54954, reference compound] | – | – | – | – | 2.13 | – | – | – | CC50 [6, 11]: > 63 µM; EC50 [8]: > 100 µM; CC50 [9, 13]: > 100 µM
Ethyl-3-[CBZ-L-Leu-L-Phe-L-[N-(2-pyrrolidinone)]-Ala]-E-Propenoate [Compound 5] | – | – | – | – | 1.6 | 221 M⁻¹ s⁻¹ | – | – | CC50 [6]: 251 µM; EC50 [7]: 0.001 µM; Ki [4, 12]: 7.1 µM
CCOC(=O)/C=C/[C@H](CCC(N)=O)NC(=O)[C@H](Cc1ccccc1)NC(=O)[C@H](CC(C)C)NC(=O)SCC [Compound 120] | 8900 | > 320 | 91300 | 20000 | – | – | 0.46 | 6 | –
CCOC(=O)/C=C/[C@H](CCC(N)=O)NC(=O)[C@H](Cc1ccccc1)NC(=O)[C@H](Cc1ccccc1)NC(=O)OCc1ccccc1 [Compound 157] | 9700 | > 320 | 162000 | 30800 | – | – | 0.56 | 6 | –
